Results from ChEMBL document CHEMBL5137072, “Redox-Activatable Theranostic Co-Prodrug for Precise Tumor Diagnosis and Selective Combination Chemotherapy” (J Med Chem, 2022).
The source made the active and inactive calls. The calls are words filed in the database; no cut-off is given here.

Experiments:
[1] = Toxicity in ICR mouse assessed as effect on ALT level at 12 umol/kg, ip measured after 12 hrs in presence of CDDO-Me; type: organism-based; details: in vivo, dose 12 µmol/kg
A549 [2] = assay: Antitumor activity at human A549 cells xenografted in BALB/c mouse assessed as reduction in tumor growth at 12 umol/kg, iv administered for 20 days and measured every 3 days for 21 days in presence of CDDO-Me; type: functional, organism-based; details: dose 12.0 µmol/kg, time 21.0 day
L02 [3] = assay: Synergistic antiproliferative activity against human L02 cells at 2.5 to 12.5 uM measured after 72 hrs in presence of CDDO-Me by MTT assay; type: toxicity, cell-based; details: l02, 72 h, dose 2.5-12.5 µM
[4] = Toxicity in ICR mouse assessed as effect on AST level at 12 umol/kg, ip measured after 12 hrs in presence of CDDO-Me; type: organism-based; details: in vivo, dose 12 µmol/kg
HFL1 [5] = assay: Synergistic antiproliferative activity against human HFL1 cells at 2.5 to 12.5 uM measured after 72 hrs in presence of CDDO-Me by MTT assay; type: toxicity, cell-based; details: hfl1, 72 h, dose 2.5-12.5 µM
A549 [6] = assay: Induction of mitochondrial membrane depolarization in human A549 cells at 15 uM incubated for 2 hrs by JC-1 staining based analysis; type: functional, cell-based
[7] = Toxicity in ICR mouse assessed as effect on ALT level at 12 umol/kg, ip measured after 12 hrs; type: organism-based; details: in vivo, dose 12 µmol/kg
HT-29 [8] = assay: Synergistic antiproliferative activity against human HT-29 cells at 2.5 to 12.5 uM measured after 72 hrs in presence of CDDO-Me by MTT assay; type: functional, cell-based; details: dose 2.5-12.5 µM
A549 [9] = assay: Antitumor activity at human A549 cells xenografted in BALB/c mouse assessed as reduction in tumor growth at 12 umol/kg, iv administered for 20 days and measured every 3 days for 21 days; type: functional, organism-based; details: dose 12.0 µmol/kg, time 21.0 day
[10] = Stability of the compound in rat plasma assessed as prodrug release at 100 ug/ml measured for 8 hrs by HPLC analysis; type: ADME, cell-free; details: at 100 µg/mL
A549 [11] = assay: Induction of apoptosis in human A549 cells assessed as upregulation of cleaved-PARP level at 1 to 4 uM incubated for 72 hrs by Western blot analysis; type: functional, cell-based; details: dose 1-4 µM
A549 [12] = assay: Induction of apoptosis in human A549 cells xenografted in BALB/c mouse at 12 umol/kg, iv administered for 20 days and measured every 3 days for 21 days by TUNEL assay; type: functional, organism-based; details: dose 12.0 µmol/kg, time 21.0 day
HFL1 [13] = assay: Synergistic antiproliferative activity against human HFL1 cells at 2.5 to 12.5 uM measured after 72 hrs in presence of SAHA by MTT assay; type: toxicity, cell-based; details: hfl1, 72 h, dose 2.5-12.5 µM
A549 [14] = assay: Induction of necrosis in human A549 cells xenografted in BALB/c mouse at 12 umol/kg, iv administered for 20 days and measured every 3 days for 21 days by TUNEL assay; type: functional, organism-based; details: dose 12.0 µmol/kg, time 21.0 day
HepG2 [15] = assay: Synergistic antiproliferative activity against human HepG2 cells at 2.5 to 12.5 uM measured after 72 hrs in presence of SAHA by MTT assay; type: functional, cell-based; details: dose 2.5-12.5 µM
[16] = target: T1, Histone deacetylase (Homo sapiens) (UniProt Q13547+O15379+Q9UBN7+Q92769+Q9UQL6+Q8WUI4+Q9BY41+Q96DB2+P56524+Q9UKV0+Q969S8); assay: Inhibition of HDAC in human A549 cells assessed as activation of Bax expression at 1 to 4 uM incubated for 72 hrs in presence of CDDO-Me by Western blot analysis; type: cell-based; details: dose 1-4 µM
A549 [17] = assay: Induction of apoptosis in human A549 cells assessed as upregulation of Mcl-1 level at 1 to 4 uM incubated for 72 hrs by Western blot analysis; type: functional, cell-based; details: dose 1-4 µM
MCF7 [18] = assay: Synergistic antiproliferative activity against human MCF7 cells at 2.5 to 12.5 uM measured after 72 hrs in presence of SAHA by MTT assay; type: functional, cell-based; details: dose 2.5-12.5 µM
HT-29 [19] = assay: Synergistic antiproliferative activity against human HT-29 cells at 2.5 to 12.5 uM measured after 72 hrs in presence of SAHA by MTT assay; type: functional, cell-based; details: dose 2.5-12.5 µM
A549 [20] = assay: Induction of necrosis in human A549 cells xenografted in BALB/c mouse at 12 umol/kg, iv administered for 20 days and measured every 3 days for 21 days by H and E staining based assay; type: functional, organism-based; details: dose 12.0 µmol/kg, time 21.0 day
MCF7 [21] = assay: Synergistic antiproliferative activity against human MCF7 cells at 2.5 to 12.5 uM measured after 72 hrs in presence of CDDO-Me by MTT assay; type: functional, cell-based; details: dose 2.5-12.5 µM
A549 [22] = assay: Induction of DNA damage in human A549 cells assessed as increase in H2AX level incubated for 72 hrs by Western blot analysis; type: functional, cell-based; details: dose 1-4 µM, DDE = dose-dependent effect
A549 [23] = assay: Induction of apoptosis in human A549 cells assessed as upregulation of Bax level at 1 to 4 uM incubated for 72 hrs by Western blot analysis; type: functional, cell-based; details: dose 1-4 µM
[24] = Toxicity in ICR mouse assessed as effect on AST level at 12 umol/kg, ip measured after 12 hrs; type: organism-based; details: in vivo, dose 12 µmol/kg
A549 [25] = assay: Induction of apoptosis in human A549 cells xenografted in BALB/c mouse at 12 umol/kg, iv administered for 20 days and measured every 3 days for 21 days by H and E staining based assay; type: functional; details: dose 12 µmol/kg, time 21 day
A549 [26] = assay: Induction of ROS accumulation in human A549 cells at 15 uM incubated for 2 hrs by DCFH2-DA staining based confocal microscopic analysis; type: functional, cell-based
[27] = Stability of the compound in rat plasma assessed as prodrug release at 100 ug/ml measured for 8 to 12 hrs by HPLC analysis; type: ADME, cell-free; details: at 100 µg/mL, time 8-12 hrs
A549 [28] = assay: Synergistic antiproliferative activity against human A549 cells at 2.5 to 12.5 uM measured after 72 hrs in presence of SAHA by MTT assay; type: functional, cell-based; details: dose 2.5-12.5 µM
[29] = Drug localization in mitochondria of human A549 cells measured after 4 hrs by Mito Tracker Green FM based confocal laser scanning microscopy analysis; type: ADME; details: a549, 4 h
[30] = Toxicity in BALB/c mouse xenografted with human A549 cells assessed as change in body weight at 12 umol/kg, iv administered for 20 days and measured every 3 days for 21 days; type: organism-based; details: in vivo, 504 h, dose 12 µmol/kg, time 21 day
[31] = Toxicity in ICR mouse assessed as accumulation of lipid droplets in liver at 12 umol/kg, ip measured after 12 hrs by H and E staining based analysis; type: organism-based; details: in vivo, dose 12 µmol/kg
HepG2 [32] = assay: Synergistic antiproliferative activity against human HepG2 cells at 2.5 to 12.5 uM measured after 72 hrs in presence of CDDO-Me by MTT assay; type: functional, cell-based; details: dose 2.5-12.5 µM
[33] = Drug distribution in BALB/c mouse xenografted with human A549 cells assessed as increase in fluorescence in tumor signal at 20 mg/kg, iv measured after 4 to 24 hrs post injection; type: ADME, organism-based; details: in vivo, time 4-24 hrs
A549 [34] = assay: Synergistic antiproliferative activity against human A549 cells at 2.5 to 12.5 uM measured after 72 hrs in presence of CDDO-Me by MTT assay; type: functional, cell-based; details: dose 2.5-12.5 µM
[35] = target: T1, Histone deacetylase (Homo sapiens); assay: Inhibition of HDAC in human A549 cells assessed as activation of Bax expression at 1 to 4 uM incubated for 72 hrs in presence of SAHA by Western blot analysis; type: cell-based; details: dose 1-4 µM
[36] = target: T2, Protein deacetylase HDAC6 (Homo sapiens) (UniProt Q9UBN7); assay: Inhibition of HDAC6 in human A549 cells assessed as reduction in HDAC expression at 1 to 4 uM incubated for 72 hrs by Western blot analysis; type: cell-based; details: dose 1-4 µM
T2 sequence (whole entry): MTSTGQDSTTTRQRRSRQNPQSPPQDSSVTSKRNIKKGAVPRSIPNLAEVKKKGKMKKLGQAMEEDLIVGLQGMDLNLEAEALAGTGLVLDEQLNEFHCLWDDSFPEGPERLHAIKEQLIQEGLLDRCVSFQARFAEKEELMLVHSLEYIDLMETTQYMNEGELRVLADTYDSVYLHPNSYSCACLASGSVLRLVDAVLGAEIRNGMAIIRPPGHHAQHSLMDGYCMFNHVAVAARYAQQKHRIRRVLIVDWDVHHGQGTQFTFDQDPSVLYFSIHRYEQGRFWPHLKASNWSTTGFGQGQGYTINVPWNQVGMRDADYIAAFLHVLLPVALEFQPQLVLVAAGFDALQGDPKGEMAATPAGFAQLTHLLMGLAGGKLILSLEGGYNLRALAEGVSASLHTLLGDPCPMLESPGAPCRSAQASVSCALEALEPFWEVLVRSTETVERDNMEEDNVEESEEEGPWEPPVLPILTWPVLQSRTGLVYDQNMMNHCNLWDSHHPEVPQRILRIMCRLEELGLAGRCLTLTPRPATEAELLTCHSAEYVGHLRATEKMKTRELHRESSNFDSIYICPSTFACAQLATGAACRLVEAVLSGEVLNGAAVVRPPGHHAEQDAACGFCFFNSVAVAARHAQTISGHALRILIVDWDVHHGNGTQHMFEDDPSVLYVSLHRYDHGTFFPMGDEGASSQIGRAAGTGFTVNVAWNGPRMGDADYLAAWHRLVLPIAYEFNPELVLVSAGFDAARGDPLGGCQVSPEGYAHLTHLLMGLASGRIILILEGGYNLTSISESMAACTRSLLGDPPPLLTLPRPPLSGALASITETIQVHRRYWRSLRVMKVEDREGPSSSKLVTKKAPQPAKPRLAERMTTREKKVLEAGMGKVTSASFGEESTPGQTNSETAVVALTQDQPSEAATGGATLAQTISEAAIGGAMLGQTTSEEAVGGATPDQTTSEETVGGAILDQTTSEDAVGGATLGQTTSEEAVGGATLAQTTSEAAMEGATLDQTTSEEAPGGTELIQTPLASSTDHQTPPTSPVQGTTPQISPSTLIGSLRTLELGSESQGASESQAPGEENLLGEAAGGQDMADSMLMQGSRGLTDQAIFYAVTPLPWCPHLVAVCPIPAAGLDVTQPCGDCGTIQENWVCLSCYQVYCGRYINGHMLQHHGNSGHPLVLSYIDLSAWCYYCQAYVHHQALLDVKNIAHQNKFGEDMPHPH

L02 [37] = assay: Synergistic antiproliferative activity against human L02 cells at 2.5 to 12.5 uM measured after 72 hrs in presence of SAHA by MTT assay; type: toxicity, cell-based; details: l02, 72 h, dose 2.5-12.5 µM

O=C(CCCCCCC(=O)Nc1ccccc1)NO [VORINOSTAT]
Activity [1]: Toxic
Activity (A549 [2]): Active
Activity (L02 [3]): Non-Toxic
Activity [4]: Toxic
Activity (HFL1 [5]): Non-Toxic

COC(=O)[C@]12CCC(C)(C)C[C@H]1[C@H]1C(=O)C=C3[C@@]4(C)C(ONC(=O)CCCCCCC(=O)Nc5ccccc5)C(C#N)=C(OCc5ccc(OC(=O)C(C)SCCCSC(C)C(=O)Oc6ccc7c(c6)OC6=C(/C=C/C8=[N+](CCCc9cn(CCOCCOCCNC(=O)CCCC[C@H]%10SC[C@H]%11NC(=O)N[C@H]%11%10)nn9)c9ccc%10ccccc%10c9C8(C)C)CCCC6=C7)cc5)C(C)(C)[C@@H]4CC[C@@]3(C)[C@]1(C)CC2.[I-] (some centres undefined)
Activity (A549 [6]): Active
Activity [7]: Non-Toxic
Activity (HT-29 [8]): Active
Activity (A549 [9]): Active
Drug metabolism [10]: < 10%
Activity (A549 [11]): Active
Activity (A549 [12]): Active
Activity (HFL1 [13]): Non-Toxic
Activity (A549 [14]): Active
Activity (HepG2 [15]): Active
inhibition [16]: Active
Activity (A549 [17]): Active
Activity (MCF7 [18]): Active
Activity (HT-29 [19]): Active
Activity (A549 [20]): Active
Activity (MCF7 [21]): Active
Activity (A549 [22]): Dde
Activity (L02 [3]): Non-Toxic
Activity (A549 [23]): Active
Activity [24]: Non-Toxic
Activity (A549 [25]): 53.3%
Activity (A549 [26]): Active
Activity (HFL1 [5]): Non-Toxic
Drug metabolism [27]: 20%
Activity (A549 [28]): Active
Drug uptake [29]: Active
Activity [30]: Non-Toxic
Activity [31]: Non-Toxic
Activity (HepG2 [32]): Active
Drug uptake [33]: Active
Activity (A549 [34]): Active
inhibition [35]: Active
inhibition [36]: Active
Activity (L02 [37]): Non-Toxic
